# In patent US20230407245A1, “Media and methods for establishing and maintaining early embryo-like cells” (BGI SHENZHEN GROUP HOLDINGS CO., LIMITED, priority 2020, published 2023):
# Tested on: primed human PSCs
# Experiment: Conversion of primed human PSCs to ICLCs, RT-qPCR of preimplantation ICM markers
# Format: cell-based
# Details: for expression of preimplantation ICM markers (RT-qPCR) in ICLCs with a different dosage of one component, compared to primed human PSCs: H9, 4CL medium 1 with PD0325901 0.5 μM, TSA 20 nM, DZNep 5, 20 or 50 nM
# Description: All provided human PSCs were routinely maintained on Matrigel™ or Geltrex™ coated plates in mTeSR1 or E8 medium. Generally, cells were passaged every 4 to 5 days with 0.5 mM EDTA. For passaging, cells were washed with PBS once and treated with 0.5 mM EDTA for 5 mins. Then, EDTA was removed and cells were detached as small clumps using a Pasteur pipette with mTeSR1 or E8 medium. Primed human PSCs were grown in an incubator under normoxic conditions (37° C., 5% CO2).
# One day before initiation of conversion, primed human PSCs were washed with PBS once and dissociated into single cells and plated at a density of 1,000 to 1,500 cells/cm 2 on feeder in mTeSR1 or E8 medium supplemented with 10 μM Y27632. Twenty-four hours later, culture medium was switched to 4CL medium 1. The culture medium was refreshed with the same medium every 24 hours. Colonies became round and domed-shape in 24 to 48 hours. Cells were passaged every 3 to 4 days. For passaging, cells were dissociated into single cells using TrypLE: 0.5 mM EDTA (1:1) and plated at a density of 1,000 to 1,500 cells/cm 2 on feeder (feeders were seeded on Geltrex™/Matrigel™ pre-treated plate) (FIG. 1). The ICLCs induction and maintenance can be conducted under hypoxic condition (37° C., 5% CO2, 5% O2), or normoxic condition (37° C., 5% CO2, 21% O2) (FIG. 34), preferably hypoxia condition.
# Using the same procedures of example 1, except plating cells on 1% (v/v) Geltrex™ in DMEM-F12 (cat #) coated plates instead of on feeder cells.
# Primed human PSCs were cultured following the same procedures of example 1. One day before initiation of the conversion, primed human PSCs were dissociated into single cells and plated 60,000 cells/well in Aggrewell™ 800 plates using mTeSR1 or E8 medium supplemented with 10 μM Y27632. Twenty-four hours later, culture medium was changed into 4CL medium 1, culture condition was then switched to hypoxic condition. Cells formed small spheres in 3 days. The spheres were then lifted and transferred to flasks (Greiner Bio-One, 658190) for suspension culture. Medium was refreshed daily. Cells were passaged every 4 to 5 days. For passaging, cells were dissociated into single cells using TrypLE: 0.5 mM EDTA (1:1), then cells were resuspended in 4CL medium 1 at a density of 150,000 cells/ml. The resuspended cells were added into flasks (Greiner Bio-One, 658190) for suspension culture. Cells formed small aggregates in 24 hours. Generally, cells were converted to ICLCs in approximately 3 weeks after initiation.
# Same as example 1, but different dosages of either PD0325901, DZNep, or TSA were also used: PD0325901, 0.5 μM; TSA, 20 nM; DZNep, 5 nM, 20 nM or 50 nM.
Structure (SMILES),"expression of preimplantation ICM markers (RT-qPCR) in ICLCs with a different dosage of one component, compared to primed human PSCs","expression levels of ICM specific genes such as DNMT3L, STELLA, DPPA5, KLF17 (final concentration of 40 to 70 ng/mL)"
"Nc1nccc2c1ncn2[C@@H]1C=C(CO)[C@@H](O)[C@H]1O [DZNep, 3-deazaneplanocin A]",significantly induced,
O=C1O[C@H]([C@@H](O)CO)C(O)=C1O [L-ascorbic acid],,potently increases
"CC(/C=C/C(=O)NO)=C\[C@@H](C)C(=O)c1ccc(N(C)C)cc1 [TSA, trichostatin A]",significantly induced,
O=C(NOC[C@H](O)CO)c1ccc(F)c(F)c1Nc1ccc(I)cc1F [PD0325901],significantly induced,
